Laboratory results as given in patent US20230404989A1, “GRK2 INHIBITION BY PAROXETINE AMELIORATES OSTEOARTHRITIS” (THE PENN STATE RESEARCH FOUNDATION, priority 2020, published 2023).

How the values were obtained:
DMM mice [1] = experiment: Anterior femoral synovial membrane thickness in DMM mice; type: in vivo, mouse; conditions: daily ip week 8 to 12, versus vehicle
Method: Drug treatment studies: In twelve-week old male wild type C57BL/6 mice that received DMM surgeries, vehicle (PBS), paroxetine (5 mg/kg/day), fluoxetine (5 mg/kg/day), gallein (10 mg/kg/day) or indomethacin (2.5 mg/kg/day) were administered daily by ip injection. Drug treatment was initiated 8 weeks following DMM to determine the role of GRK2 signaling in the progression of OA. Using Safranin-O/Fast Green-stained sections, the OsteoMetrics system was used to quantify the above parameters on three sections from representative levels (50 μm apart) of the medial compartment of the joint for each sample. Live images of the center of the knee joint were collected through an Olympus microscope (10× objective) outfitted with a camera, a stylus was used to trace the regions of interest (ROIs). A blinded observer quantified uncalcified articular cartilage area, total chondrocyte number and matrix-producing chondrocyte number using the built-in area calculation algorithms and quantification functions of the OsteoMeasure® system. […] The calcified cartilage was determined with a line drawn along the tide mark, which is the naturally occurring line separating the calcified and uncalcified regions of the articular cartilage. A second line was drawn at the chondro-osseous junction where the calcified cartilage meets the subchondral bone. The uncalcified cartilage area was determined by subtracting the calcified cartilage area from the total area of cartilage. Total chondrocyte number and matrix-producing chondrocyte number were counted within the uncalcified cartilage region using count functions within the histomorphometry system. Matrix-producing chondrocytes were counted based on the region of Safranin-O staining within the extracellular matrix surrounding the articular chondrocyte, indicating anabolic signaling to maintain matrix homeostasis. Similarly, the anterior femoral synovial thickness was measured using OsteoMeasure® software. Synovial membrane thickness extending from anterior horn of the medial meniscus to the femur was determined by drawing a line from the inner insertion point on the femur towards the attachment on the meniscus. A second line was drawn from the outer insertion of the femur towards the attachment to the meniscus. The synovial thickness was calculated by dividing total synovial area by synovial perimeter.

[2] = tested on: Gas activity (cAMP content in cartilage); experiment: cAMP assay in tibial articular cartilage of drug-treated DMM mice; type: in vivo, mouse; conditions: daily ip week 8 to 12
Method: Drug treatment studies: In twelve-week old male wild type C57BL/6 mice that received DMM surgeries, vehicle (PBS), paroxetine (5 mg/kg/day), fluoxetine (5 mg/kg/day), gallein (10 mg/kg/day) or indomethacin (2.5 mg/kg/day) were administered daily by ip injection. Drug treatment was initiated 8 weeks following DMM to determine the role of GRK2 signaling in the progression of OA. Short term drug treatment study: To evaluate the acute effect of drug treatments, GRK2^f/f mice received sham or DMM surgery followed by treatment with vehicle, paroxetine, gallein, fluoxetine, or indomethacin with the doses indicated above for 1 week beginning at 8 weeks post DMM. All mice were sacrificed 9 weeks post DMM, 21 weeks of age, for analysis of OA progression. Gas activity was measured by quantifying cAMP content in cartilage pooled from 3 mice. Tibial cartilage was dissected out and snap frozen in liquid Nitrogen. As positive control, tibial cartilage obtained from normal mice was treated with 0.5 mM 3-isobutyl-1-methylxanthine (IBMX) for 30 minutes, followed by 0.1 mM Forskolin for 15 minutes, then snap frozen in liquid Nitrogen. For human cartilage cAMP content, 70 mg frozen cartilage were used. Frozen cartilage was pulverized using 500 μL lysis buffer as we have previously described (H. K. Le Bleu, Anal Biochem, 518, 134-138 (2017)). cAMP content was quantified using the Cyclic AMP XP Assay kit (Cell Signaling, #4339) and following manufacturer's protocol, with 0.5 mM IBMX added to the lysis buffer to prevent phosphodiesterase mediated cAMP degradation during the extraction process. cAMP levels in different groups were normalized to that of sham mice or the vehicle treated human cartilage.

DMM mice [3] = experiment: DMM drug treatment study: OARSI scoring and histomorphometry of knee cartilage; type: in vivo, mouse
Method: Drug treatment studies: In twelve-week old male wild type C57BL/6 mice that received DMM surgeries, vehicle (PBS), paroxetine (5 mg/kg/day), fluoxetine (5 mg/kg/day), gallein (10 mg/kg/day) or indomethacin (2.5 mg/kg/day) were administered daily by ip injection. Drug treatment was initiated 8 weeks following DMM to determine the role of GRK2 signaling in the progression of OA.
Twelve-week-old male mice were administered DMM surgery to the right knee and sham surgery to the left knee as described (S. S. Glasson, Osteoarthritis. Cartilage. 15, 1061-1069 (2007)). Briefly, mice were anesthetized via intraperitoneal injection of ketamine (60 mg/kg) and xylazine (4 mg/kg), and a 5-mm-long incision was made on the medial side of the knee. Under a dissecting microscope, an incision was made along the medial side of the patellar tendon, opening the joint space. Using a #11 scalpel, the medial meniscotibial ligament (MMTL) was transected, enabling the medial meniscus to move freely. A similar skin incision was made in sham knees, but the joint structure was not disturbed. For the sham group, both right and left knees had sham surgeries. After surgery, 4-0 silk sutures were used to close the incision using an interrupted pattern. Mice were provided analgesia via intraperitoneal injection of buprenorphine (0.5 mg/kg) every 12 hours for 72 hours, and sutures were removed after 7 days. Mice were sacrificed, at the indicated time points, by anesthesia followed with whole animal perfusion using 10% NBF, knees were harvested and fixed for 7 days in 10% NBF, decalcified for 7 days in 10% w/v EDTA, embedded in paraffin, and 10-μm sections were cut and mounted for Safranin-O/Fast Green or IF staining.
Semi-quantitative histopathologic grading was performed using a derivative of the Chambers' scoring system that has been established by the OARSI histopathology initiative as the standard method for grading of mouse cartilage degeneration. Based on this system, cartilage grading was carried out using Safranin-O/Fast Green-stained midsagittal sections. Three sections from representative levels (50 μm apart) of the medial compartment of the joint were selected for each sample and, which were evaluated in a randomized, blinded manner by 3 laboratory members. The 3 scores were averaged to calculate the section score, and the sample score was then calculated by averaging the scores obtained from the three levels. Grading was performed using the following scale: 0=normal cartilage, 0.5=loss of proteoglycan stain without cartilage damage, 1=mild superficial fibrillation, 2=fibrillation and/or clefting extending below the superficial zone, 3=mild (<25%) loss of cartilage, 4=moderate (25-50%) loss of cartilage, 5=severe (50-75%) loss of uncalcified cartilage, and 6=eburnation with >75% loss of cartilage. Grading was performed by three blinded observers (F.K., M.J.Z., and E.R.S.). Observer agreement was evaluated in pairs via calculation of a weighted kappa coefficient, using Fleiss-Cohen weights, as we have described. The F.K. versus M.J.Z. coefficient was 0.92, the F.K. versus E.R.S. coefficient was 0.94, and the M.J.Z. versus E.R.S coefficient was 0.89, all indicative of strong agreement between the observers.
Using Safranin-O/Fast Green-stained sections, the OsteoMetrics system was used to quantify the above parameters on three sections from representative levels (50 μm apart) of the medial compartment of the joint for each sample. Live images of the center of the knee joint were collected through an Olympus microscope (10× objective) outfitted with a camera, a stylus was used to trace the regions of interest (ROIs). A blinded observer quantified uncalcified articular cartilage area, total chondrocyte number and matrix-producing chondrocyte number using the built-in area calculation algorithms and quantification functions of the OsteoMeasure® system. […]

GRK2 = target: T1, GRK2 (Homo sapiens, UniProt P25098); conditions: from cited literature; cited from earlier work
T1 sequence (P25098 1-689): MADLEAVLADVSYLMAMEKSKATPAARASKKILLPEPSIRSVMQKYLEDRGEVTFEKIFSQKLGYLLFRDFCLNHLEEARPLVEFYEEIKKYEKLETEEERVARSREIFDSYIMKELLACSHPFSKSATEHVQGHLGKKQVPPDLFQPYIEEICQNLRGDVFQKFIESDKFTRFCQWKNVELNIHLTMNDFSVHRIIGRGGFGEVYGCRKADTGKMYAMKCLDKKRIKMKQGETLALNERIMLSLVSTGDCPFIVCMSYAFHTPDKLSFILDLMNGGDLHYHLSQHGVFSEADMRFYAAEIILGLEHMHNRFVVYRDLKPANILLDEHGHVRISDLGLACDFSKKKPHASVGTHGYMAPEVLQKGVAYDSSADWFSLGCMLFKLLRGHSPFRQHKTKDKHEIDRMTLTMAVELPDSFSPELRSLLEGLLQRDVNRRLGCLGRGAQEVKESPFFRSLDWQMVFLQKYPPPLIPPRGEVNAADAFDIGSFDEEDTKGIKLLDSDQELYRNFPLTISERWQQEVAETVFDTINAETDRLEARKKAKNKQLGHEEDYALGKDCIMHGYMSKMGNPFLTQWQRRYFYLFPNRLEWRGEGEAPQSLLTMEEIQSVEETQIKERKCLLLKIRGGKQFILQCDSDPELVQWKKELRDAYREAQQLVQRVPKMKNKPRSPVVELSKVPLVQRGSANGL

DMM mice [4] = experiment: DMM mice treated with PTH, paroxetine or their combination: histology and histomorphometry (Example 1); type: in vivo, mouse; conditions: treatment week 8 to 12, PTH sc 40 μg/kg/day, paroxetine ip 5 mg/kg/day
Method: Methods: Destabilization of the medial meniscus (DMM) surgery was used to simulate clinical post-traumatic OA. First, we determined the role of GRK2 inhibition in PTH1R Gas-cAMP signaling: 12 week old male mice underwent sham or DMM surgery and were treated with either vehicle or the GRK2 inhibitor “paroxetine” (ip, 5 mg/kg/day), treatment was initiated at the time of surgery and continued daily until 8 weeks. Knees were harvested and articular cartilage was obtained for ex vivo analysis of Gas activity. In ex vivo culture, cartilage explants were treated with PTH as an agonist to stimulate PTH1R-Ga-cAMP signaling. Thirty minutes following PTH stimulation, cartilage tissue was homogenized and cAMP levels were measured. Then, we determined the role of GRK2 inhibition in recovering or even potentiating PTH1R signaling in OA cartilage: 12 week old male mice underwent sham or DMM surgery, and received treatment with vehicle, PTH (sc, 40 μg/kg/day) alone, the GRK2 inhibitor “paroxetine3” (ip, 5 mg/kg/day) alone, or their combination. Treatment was initiated at week 8 following DMM surgery, where OA is in progress, and continued until week 12 where mice were sacrificed. Knees were harvested, paraffin embedded, sectioned and stained with safranin-o and fast green for histological evaluation, OARSI scoring, and histomorphometric analysis. Results are expressed as mean values+s.e.m. with an N=5-8 mice per experimental group. Statistical analyses were performed using one ANVOA with P<0.05 representing statistical significance.

DMM mice [5] = experiment: Paroxetine combined with PTH in DMM mice: Micro-CT of subchondral bone; type: in vivo, mouse; conditions: daily from 8 weeks, harvest 12 weeks after surgery
[6] = daily ip week 8 to 12, versus vehicle

Molecule	synovial membrane thickness (DMM mice [1])	cAMP levels in the articular cartilage [2]	cartilage degeneration (Safranin-O and Fast Green histology) (DMM mice [3]; daily ip week 8 to 12)	chondro-protective and matrix-regenerative effects (overall) (DMM mice [3]; daily ip week 8 to 12)	total number of chondrocytes (DMM mice [3]; daily ip week 8 to 12)	uncalcified cartilage area (DMM mice [3]; daily ip week 8 to 12)	OARSI score (DMM mice [3]; [6])	number of matrix producing chondrocytes (DMM mice [3]; [6])	GRK2 inhibitory effect (GRK2)	chondrocyte number (DMM mice [4])	number of matrix-producing (anabolic) chondrocytes (DMM mice [4])	uncalcified cartilage area (DMM mice [4])	effect on the subchondral bone of OA mice (plate thickness, BMD, BV/TV, Tb.Th, osteophytes) (DMM mice [5])
CNCCC(Oc1ccc(C(F)(F)F)cc1)c1ccccc1 (stereo not shown) [fluoxetine]	attenuated	not different from vehicle treated mice	progressive cartilage degeneration	lacks chondro-protective and matrix-regenerative effects	only mild preservation	no preservation	high	low	lacks any GRK2-inhibitory effects	–	–	–	–
parathyroid hormone [PTH]	–	–	–	–	–	–	–	–	–	increased	particular increase	increased	deleterious effects
COc1ccc2c(c1)c(CC(=O)O)c(C)n2C(=O)c1ccc(Cl)cc1 [indomethacin]	significantly reduced	–	progressive cartilage degeneration	no chondro-protective or matrix-regenerative effects	–	–	–	–	–	–	–	–	–
